This is an account of results in patent publication US8399681B2, “Substituted aminothiazolone indazoles as estrogen related receptor-alpha modulators” (Janssen Pharmaceutica NV, priority 2009, dated 2013).

This assay addresses T1, ERR1 (also known as ERR-α or ERR-1) (Homo sapiens, UniProt P11474).
T1 sequence (P11474 193-421 limits assumed): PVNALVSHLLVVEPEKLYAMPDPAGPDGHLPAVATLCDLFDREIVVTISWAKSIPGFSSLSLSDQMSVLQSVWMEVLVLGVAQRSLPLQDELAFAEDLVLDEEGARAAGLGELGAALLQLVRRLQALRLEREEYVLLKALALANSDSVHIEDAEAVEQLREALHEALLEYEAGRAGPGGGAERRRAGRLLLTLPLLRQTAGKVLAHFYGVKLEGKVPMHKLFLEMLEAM
The experiment in a line: TR-FRET assay (disruption of co-activator peptide binding). It is filed as biochemical. Conditions: 6His-tagged ERR1 LBD, GST-hSRC2 co-activator polypeptide; average of 3 independent experiments. How it is done: Time-Resolved Fluorescence Resonance Energy Transfer (TR-FRET) experiments were performed to examine the functional response of ERR1 (also known as ERR-α or ERR-1) ligands. The TR-FRET assay described herein relied on the conformation of ERR1 for binding to a co-activator peptide: when a test compound binds to ERR1 and alters its conformation, it can disrupt the binding of the co-activator peptide. The components of this homogeneous secondary assay included: the ^6His-tagged-ERR1LBD, a GST-labeled-hSRC2 co-activator polypeptide and a fluorescent donor/acceptor pair from CIS bio international htrf/bioassays (Bedford, Mass.) using both an α-GST Europium Cryptate (Eu) label and an α^6His-XL665 (allophycocyanin) fluorophore.
For TR-FRET measurements, the reaction was buffered in 25 mM Tris pH 8, 2.5 mM Hepes, 20 mM KCl, 1 mM DTT, and 0.05 mg/mL BSA (-lipids). The final concentrations of reagents were 6 nM of ERR1LBD, 6 nM GST-SRC-2 peptide, 30 nM Eu cryptate, and 7.5 nM XL665. Reactions were allowed to reach equilibrium at 25° C. for 4-18 hours before collecting data on the Analyst from LJL Biosystems (Molecular Devices Sunnyvale, Calif.). As a time-resolved method, the samples were excited at […] and emission was collected for 1 ms at both 615 and 665 nm with delays of 400 and 75 μs, respectively. Dose response curves were fitted using a hyperbolic equation and the data reported is the average of 3 independent experiments.

`N[C@@H]1CCCN(C2=NC(=O)/C(=C/c3ccc4c(cnn4Cc4ccc(C(F)(F)F)cc4C(F)(F)F)c3)S2)C1` [Example 53, 2-(3-(R)-Amino-piperidin-1-yl)-5-[1-(2,4-bis-trifluoromethyl-benzyl)-1H-indazol-5-ylmethylene]-thiazol-4-one] came in with an EC50 of 13 nM.

`O=C1N=C(N2CCCNCC2)S/C1=C\c1ccc2c(cnn2Cc2ccc(C(F)(F)F)cc2C(F)(F)F)c1` [Example 55, 5-[1-(2,4-Bis-trifluoromethyl-benzyl)-1H-indazol-5-ylmethylene]-2-[1,4]diazepan-1-yl-thiazol-4-one] displayed an EC50 of 61 nM.

`NC1CCN(C2=NC(=O)/C(=C/c3ccc4c(cnn4Cc4ccc(Cl)cc4C(F)(F)F)c3)S2)CC1` [Example 57, 2-(4-Amino-piperidin-1-yl)-5-[1-(4-chloro-2-trifluoromethyl-benzyl)-1H-indazol-5-ylmethylene]-thiazol-4-one]: the response was half-maximal at 12.1 nM (EC50). The result for `O=C1N=C(N2CCN(CC(F)(F)F)CC2)S/C1=C\c1ccc2c(cnn2Cc2ccc(Cl)cc2C(F)(F)F)c1` [Example 58, 5-[1-(4-Chloro-2-trifluoromethyl-benzyl)-1H-indazol-5-ylmethylene]-2-[4-(2,2,2-trifluoro-ethyl)-piperazin-1-yl]-thiazol-4-one] reads 42 nM; that for `N[C@@H]1CCCN(C2=NC(=O)/C(=C/c3ccc4c(cnn4Cc4ccc(Cl)cc4C(F)(F)F)c3)S2)C1` [Example 59, 2-(3-(R)-Amino-piperidin-1-yl)-5-[1-(4-chloro-2-trifluoromethyl-benzyl)-1H-indazol-5-ylmethylene]-thiazol-4-one], 23 nM; that for `N[C@H]1CCCN(C2=NC(=O)/C(=C/c3ccc4c(cnn4Cc4ccc(Cl)cc4C(F)(F)F)c3)S2)C1` [Example 60, 2-(3-(S)-Amino-piperidin-1-yl)-5-[1-(4-chloro-2-trifluoromethyl-benzyl)-1H-indazol-5-ylmethylene]-thiazol-4-one], 19.7 nM.

`O=C1N=C(N2CCN(CC(F)F)CC2)S/C1=C\c1ccc2c(cnn2Cc2ccc(Cl)cc2C(F)(F)F)c1` [Example 61, 5-[1-(4-Chloro-2-trifluoromethyl-benzyl)-1H-indazol-5-ylmethylene]-2-[4-(2,2-difluoro-ethyl)-piperazin-1-yl]-thiazol-4-one] came in with an EC50 of 19.6 nM. The figure for `CCN1CCN(C2=NC(=O)/C(=C/c3ccc4c(cnn4Cc4ccc(Cl)cc4C(F)(F)F)c3)S2)CC1` [Example 63, 5-[1-(4-Chloro-2-trifluoromethyl-benzyl)-1H-indazol-5-ylmethylene]-2-(4-ethyl-piperazin-1-yl)-thiazol-4-one] is 54 nM; for `C[C@H]1CN(C2=NC(=O)/C(=C/c3ccc4c(cnn4Cc4ccc(Cl)cc4C(F)(F)F)c3)S2)[C@@H](C)CN1` [Example 65, 5-[1-(4-Chloro-2-trifluoromethyl-benzyl)-1H-indazol-5-ylmethylene]-2-(2-(S),5-(S)-dimethyl-piperazin-1-yl)-thiazol-4-one] it is 17 nM. The figure for `COCCN1CCN(C2=NC(=O)/C(=C/c3ccc4c(cnn4Cc4ccc(C(F)(F)F)cc4C(F)(F)F)c3)S2)CC1` [Example 66, 5-[1-(2,4-Bis-trifluoromethyl-benzyl)-1H-indazol-5-ylmethylene]-2-[4-(2-methoxy-ethyl)-piperazin-1-yl]-thiazol-4-one] is 24.9 nM. The figure for `CCN1CCN(C2=NC(=O)/C(=C/c3ccc4c(cnn4Cc4ccc(C(F)(F)F)cc4C(F)(F)F)c3)S2)CC1` [Example 67, 5-[1-(2,4-Bis-trifluoromethyl-benzyl)-1H-indazol-5-ylmethylene]-2-(4-ethyl-piperazin-1-yl)-thiazol-4-one] is 21 nM; for `O=C1N=C(N2CC(O)C2)S/C1=C\c1ccc2c(cnn2Cc2ccc(Cl)cc2C(F)(F)F)c1` [Example 68, 5-[1-(4-Chloro-2-trifluoromethyl-benzyl)-1H-indazol-5-ylmethylene]-2-(3-hydroxy-azetidin-1-yl)-thiazol-4-one] it is 9.6 nM; for `O=C1N=C(N2C[C@@H]3C[C@H]2CN3)S/C1=C\c1ccc2c(cnn2Cc2ccc(C(F)(F)F)cc2C(F)(F)F)c1` [Example 69, 5-[1-(2,4-Bis-trifluoromethyl-benzyl)-1H-indazol-5-ylmethylene]-2-(2S,5S-diaza-bicyclo[2.2.1]hept-2-yl)-thiazol-4-one] it is 26 nM. In turn, `CN1C[C@@H]2C[C@H]1CN2C1=NC(=O)/C(=C/c2ccc3c(cnn3Cc3ccc(C(F)(F)F)cc3C(F)(F)F)c2)S1` [Example 70, 5-[1-(2,4-Bis-trifluoromethyl-benzyl)-1H-indazol-5-ylmethylene]-2-(5-methyl-2S,5S-diaza-bicyclo[2.2.1]hept-2-yl)-thiazol-4-one] had an EC50 of 11 nM. Take `CCOCCN1CCN(C2=NC(=O)/C(=C/c3ccc4c(cnn4Cc4ccc(C(F)(F)F)cc4C(F)(F)F)c3)S2)CC1` [Example 73, 5-[1-(2,4-Bis-trifluoromethyl-benzyl)-1H-indazol-5-ylmethylene]-2-[4-(2-ethoxy-ethyl)-piperazin-1-yl]-thiazol-4-one]: the half-maximal effective concentration (EC50) amounted to 172 nM. The result for `CC1(C(=O)O)CCN(C2=NC(=O)/C(=C/c3ccc4c(cnn4Cc4ccc(C(F)(F)F)cc4C(F)(F)F)c3)S2)CC1` [Example 74, 1-{5-[1-(2,4-Bis-trifluoromethyl-benzyl)-1H-indazol-5-ylmethylene]-4-oxo-4,5-dihydro-thiazol-2-yl}-4-methyl-piperidine-4-carboxylic acid] reads 56.2 nM.

In the case of `CC1(C(=O)O)CCN(C2=NC(=O)/C(=C/c3ccc4c(cnn4Cc4ccc(Cl)cc4C(F)(F)F)c3)S2)CC1` [Example 75, 1-{5-[1-(4-Chloro-2-trifluoromethyl-benzyl)-1H-indazol-5-ylmethylene]-4-oxo-4,5-dihydro-thiazol-2-yl}-4-methyl-piperidine-4-carboxylic acid], a half-maximal response (EC50) required 73.4 nM.

`O=C1N=C(N2CCCN(CCO)CC2)S/C1=C\c1ccc2c(cnn2Cc2ccc(Cl)cc2C(F)(F)F)c1` [Example 76, 5-[1-(4-Chloro-2-trifluoromethyl-benzyl)-1H-indazol-5-ylmethylene]-2-[4-(2-hydroxy-ethyl)-[1,4]diazepan-1-yl]-thiazol-4-one] came in with an EC50 of 18.3 nM. The result for `NC1CN(C2=NC(=O)/C(=C/c3ccc4c(cnn4Cc4ccc(C(F)(F)F)cc4C(F)(F)F)c3)S2)C1` [Example 77, 2-(3-Amino-azetidin-1-yl)-5-[1-(2,4-bis-trifluoromethyl-benzyl)-1H-indazol-5-ylmethylene]-thiazol-4-one] reads 58.7 nM. For the molecule `CN1C[C@@H]2C[C@H]1CN2C1=NC(=O)/C(=C/c2ccc3c(cnn3Cc3ccc(Cl)cc3C(F)(F)F)c2)S1` [Example 78, 5-[1-(4-Chloro-2-trifluoromethyl-benzyl)-1H-indazol-5-ylmethylene]-2-(5-methyl-2S,5S-diaza-bicyclo[2.2.1]hept-2-yl)-thiazol-4-one], the EC50 is 4.5 nM.

Molecule `NC(=O)CN1CCN(C2=NC(=O)/C(=C/c3ccc4c(cnn4Cc4ccc(Cl)cc4C(F)(F)F)c3)S2)CC1` [Example 79, 2-(4-{5-[1-(4-Chloro-2-trifluoromethyl-benzyl)-1H-indazol-5-ylmethylene]-4-oxo-4,5-dihydro-thiazol-2-yl}-piperazin-1-yl)-acetamide] displayed an EC50 of 9 nM. The result for `O=C1N=C(N2C[C@@H]3C[C@H]2CN3CCO)S/C1=C\c1ccc2c(cnn2Cc2ccc(Cl)cc2C(F)(F)F)c1` [Example 80, 5-[1-(4-Chloro-2-trifluoromethyl-benzyl)-1H-indazol-5-ylmethylene]-2-[5-(2-hydroxy-ethyl)-2S,5S-diaza-bicyclo[2.2.1]hept-2-yl]-thiazol-4-one] reads 5.7 nM; that for `CCOCCN1CCN(C2=NC(=O)/C(=C/c3ccc4c(cnn4Cc4ccc(Cl)cc4C(F)(F)F)c3)S2)CC1` [Example 81, 5-[1-(4-Chloro-2-trifluoromethyl-benzyl)-1H-indazol-5-ylmethylene]-2-[4-(2-ethoxy-ethyl)-piperazin-1-yl]-thiazol-4-one], 68.8 nM. The figure for `CNC(=O)CN1CCN(C2=NC(=O)/C(=C/c3ccc4c(cnn4Cc4ccc(Cl)cc4C(F)(F)F)c3)S2)CC1` [Example 82, 2-(4-{5-[1-(4-Chloro-2-trifluoromethyl-benzyl)-1H-indazol-5-ylmethylene]-4-oxo-4,5-dihydro-thiazol-2-yl}piperazin-1-yl)-N-methyl-acetamide] is 7.6 nM; for `C[C@@H]1CNCCN1C1=NC(=O)/C(=C/c2ccc3c(cnn3Cc3ccc(Cl)cc3C(F)(F)F)c2)S1` [Example 83, 5-[1-(4-Chloro-2-trifluoromethyl-benzyl)-1H-indazol-5-ylmethylene]-2-(2-(R)-methyl-piperazin-1-yl)-thiazol-4-one] it is 15 nM.
